This is an account of results in US20230286995A1, “METABOLICALLY STABLE PYRIMIDINYL DIHYDROQUINOXALINONES AS TUBULIN POLYMERIZATION INHIBITORS” (UNIVERSITY OF TENNESSEE RESEARCH FOUNDATION, priority 2022, published 2023).

Broadly, the logP is the decadic logarithm of the partition coefficient of the neutral form, usually between octanol and water. A higher logP goes with higher lipophilicity.

Where two headings read alike, the source gives them in different places.

The test system of data set [1] is MDA-MB-231. Briefly: Cytotoxicity assay (MTS, 72 h). In kind it is cell-based. The conditions noted are these: Homo sapiens.
The test system of data set [2] is MDA-MB-453. Briefly: Cytotoxicity assay (MTS, 72 h). The format is cell-based, human.
Data set [3] has as its system Mia PaCa-2. Put plainly: Cytotoxicity assay (MTS, 72 h). The format is cell-based. The conditions noted are these: Homo sapiens, Table 6, read-out: IC50 (nM) Pancreatic cancer Mia PaCa-2.
Data set [4] relates to PANC-1. Briefly: Cytotoxicity assay (MTS, 72 h). The format is cell-based. As to conditions: Homo sapiens, Table 6, read-out: IC50 (nM) Pancreatic cancer PANC-1. The method, then: Mia PaCa-2 and PANC-1 cells were seeded in 96-well plates at 4000 and 5000 cells per well, respectively.
(§1) Cytotoxicity Assay. […] Each experiment consisted of four replicates.

Data set [5] deals with PC3. Briefly: Cytotoxicity assay (MTS, 72 h). In kind it is cell-based. The conditions noted are these: Homo sapiens, PC-3; Table 6; read-out: IC50 (nM) Prostate cancer PC3.
Source text: as §1

In data set [6] the test system is PC3/TxR. Put plainly: Cytotoxicity assay (MTS, 72 h). In kind it is cell-based. The conditions noted are these: Homo sapiens, Table 6, paclitaxel-resistant, read-out: IC50 (nM) Prostate cancer PC3/TxR. Here is the method: Biology. Cell culture and Reagents. […] MIA Paca-2 pancreatic cancer cells were cultured in media also supplemented with 2.5% horse serum. PANC-1 and PC-3 were cultured in RPMI 1640 medium (Gibco, Carlsbad, Calif.) supplemented with 10% FBS and 1% antibiotic/antimycotic mixture. […] For biological experiments, pyrimidine dihydroquinoxalinone derivatives were dissolved in DMSO to create 20 mM stock solutions and stored at −20° C. until use.
as §1

The test system of data set [7] is A375. Briefly: Cytotoxicity assay (MTS, 72 h). The conditions noted are these: Homo sapiens.
Data set [8] relates to M14. Put plainly: Cytotoxicity assay (MTS, 72 h). As to conditions: Homo sapiens.
In data set [9] the test system is RPMI-7951. Put plainly: Cytotoxicity assay (MTS, 72 h). In kind it is cell-based. The conditions noted are these: Homo sapiens, Table 1, read-out: IC50 (nM) Melanoma RPMI-7951.
Data set [10] concerns MDA-MB-468. Put plainly: Cytotoxicity assay (MTS, 72 h). The conditions noted are these: Table 1, read-out: IC50 (nM) Breast MDA-MB-468. The format is cell-based, human.
A short description of data set [11]: logP. In kind it is physicochemical. The conditions noted are these: Table 1; method not described.
For data set [12], the system named is human melanoma and breast cancer cell lines. Briefly: Cytotoxicity, all tested cell lines of Table 1. The conditions noted are these: Homo sapiens, melanoma and breast lines of Table 1; read-out: IC50 values, range over all tested cell lines. In kind it is cell-based.
Setting [13] is: MDA-MB-231, read-out: IC50 (nM) Breast Cancer MDA-MB-231, Table 6.
Setting [14] is: Homo sapiens, MDA-MB-453, Table 6, read-out: IC50 (nM) Breast Cancer MDA-MB-453.
[15] abbreviates: A-375, read-out: IC50 (nM) Melanoma Cancer A375, Table 6.
Setting [16] is: M14, read-out: IC50 (nM) Melanoma Cancer M14.
The mark [17] stands for this setting: MDA-MB-231, read-out: IC50 (nM) Breast MDA-MB-231, Table 1.
[18] abbreviates: Homo sapiens, MDA-MB-453, Table 1, read-out: IC50 (nM) Breast MDA-MB-453.
Setting [19] is: A-375, read-out: IC50 (nM) Melanoma A375, Table 1.
The mark [20] stands for this setting: M14, read-out: IC50 (nM) Melanoma M14.
Where [21] appears, read: Table 1, read-out: IC50 (nM) Breast MDA-MB-453.

For `COc1ccc2c(c1)NC(=O)CN2c1nc(SC)nc2c1CCC2` [Compound 10, 7-methoxy-4-(2-(methylthio)-6,7-dihydro-5H-cyclopenta[d]pyrimidin-4-yl)-3,4-dihydroquinoxalin-2(1H)-one], the IC50 came out at 4.3 ± 0.7 nM in data set [1] (setting [13]); 1.4 ± 0.6 nM in data set [2] (setting [14]); 3.9 ± 0.6 nM in [3]; 3.4 ± 0.6 nM in data set [4]; 2.4 ± 0.4 nM in [5]; 1.6 ± 0.2 nM in [6]. Also, the IC50 was 3.4 ± 0.5 nM in [7] (setting [15]) and 3.2 ± 0.5 nM in data set [8] (setting [16]).

Turning to `COc1ccc2c(c1)NC(=O)CN2c1nc(N=C=S)nc2c1CCC2` [Compound 12l, 4-(2-isothiocyanato-6,7-dihydro-5H-cyclopenta[d]pyrimidin-4-yl)-7-methoxy-3,4-dihydroquinoxalin-2(1H)-one], the IC50 was 4.9 ± 0.8 nM in data set [1] (setting [13]); 2.9 ± 0.6 nM in data set [2] (setting [14]); 7.3 ± 1.2 nM in [3]; 10.7 ± 2.3 nM in [4]; 6.3 ± 0.8 nM in data set [5]; 4.8 ± 0.7 nM in data set [6]. Further, the IC50 in data set [7] (setting [15]) was approximately 3.3 nM; in [8] (setting [16]), 2.6 ± 0.4 nM.

Consider `COc1ccc2c(c1)NC(=O)CN2c1nc(NCCO)nc2c1CCC2` [Compound 12m, 4-(2-((2-hydroxyethyl)amino)-6,7-dihydro-5H-cyclopenta[d]pyrimidin-4-yl)-7-methoxy-3,4-dihydroquinoxalin-2(1H)-one], for which the IC50 in data set [1] (setting [13]) was 8.6 ± 1.2 nM; in data set [2] (setting [14]), 6.4 ± 1.6 nM; in data set [3], 23.6 ± 3.5 nM; in data set [4] it was 43.1 ± 8.2 nM; in data set [5], 14.8 ± 1.8 nM; in data set [6], 15 ± 1.6 nM. Moreover, the IC50 in [7] (setting [15]) is approximately 8.6 nM; in [8] (setting [16]), 7 ± 1 nM.

Regarding `COc1ccc2c(c1)NC(=O)CN2c1nc(Cl)nc2ccoc12` [Compound 5j, 4-(2-chlorofuro[3,2-d]pyrimidin-4-yl)-7-methoxy-3,4-dihydroquinoxalin-2(1H)-one], the IC50 in data set [9] was 14.8 ± 3.7 nM; in data set [1] (setting [17]), 5.4 ± 0.6 nM; in data set [2] (setting [18]) it was 1.4 ± 0.3 nM; in data set [10] (Homo sapiens, MDA-MB-468) it was 6.4 ± 1.3 nM; in [7] (setting [19]), 11.9 ± 3.2 nM; in data set [8] (setting [20]), 5.6 ± 1.2 nM. In data set [11], the logP was 1.6.

In the case of `COc1ccc2c(c1)NC(=O)CN2c1nc(Cl)nc2c1CCC2` [Compound 5l, 4-(2-chloro-6,7-dihydro-5H-cyclopenta[d]pyrimidin-4-yl)-7-methoxy-3,4-dihydroquinoxalin-2(1H)-one], the IC50 in [9] is 6.8 ± 2.5 nM; in [1] (setting [17]), 25.7 ± 6.2 nM; in [2] (setting [18]), 3.7 ± 1.2 nM; in data set [10] (Homo sapiens, MDA-MB-468), 5.6 ± 2.2 nM; in data set [12] it was 0.4 to 26 nM; in data set [7] (setting [19]), 5.5 ± 0.7 nM. The IC50 in data set [8] (setting [20]) turned out to be 5.9 ± 1.5 nM. The compound also had a logP in data set [11] of 2.74.

Take `COc1ccc2c(c1)NC(=O)CN2c1ncnc2c1CCC2` [Compound 5n, 4-(6,7-dihydro-5H-cyclopenta[d]pyrimidin-4-yl)-7-methoxy-3,4-dihydroquinoxalin-2(1H)-one]: the IC50 is 14 ± 3.9 nM in data set [9]; 54 ± 9.9 nM in data set [1] (setting [17]); 7.3 ± 1.5 nM in [2] (setting [18]); 15.6 ± 3.8 nM in data set [10] (Homo sapiens, MDA-MB-468); 13.4 ± 1.9 nM in data set [7] (setting [19]); 19.1 ± 5.3 nM in data set [8] (setting [20]). This compound also gave a logP in data set [11] of 2.05.

As for `COc1ccc2c(c1)NC(=O)CN2c1nc(-n2ccnc2)nc2c1CCC2` [Compound 12h, 4-(2-(1H-imidazol-1-yl)-6,7-dihydro-5H-cyclopenta[d]pyrimidin-4-yl)-7-methoxy-3,4-dihydroquinoxalin-2(1H)-one], the IC50 in data set [1] (setting [13]) amounted to 8.4 ± 1.5 nM; in data set [2] (setting [14]) it was 4.5 ± 1.2 nM; in data set [3], 15.5 ± 2.5 nM; in data set [4] it was 11.5 ± 2.3 nM; in [5], 8.2 ± 1.4 nM; in data set [6], 4.7 ± 0.7 nM. The IC50 was approximately 5.7 nM in [7] (setting [15]) and 5.8 ± 1.2 nM in data set [8] (setting [16]).

In the case of `COc1ccc2c(c1)NC(=O)CN2c1nc(N)nc2c1CCC2` [Compound 12c, 4-(2-amino-6,7-dihydro-5H-cyclopenta[d]pyrimidin-4-yl)-7-methoxy-3,4-dihydroquinoxalin-2(1H)-one], the IC50 in data set [1] (setting [13]) came out at 2.3 ± 0.5 nM; in data set [2] (setting [14]), 1.4 ± 0.4 nM; in data set [3], 5 ± 0.7 nM; in data set [4] it was 5.5 ± 1 nM; in data set [5] it was 3.8 ± 0.6 nM; in data set [6], 2.3 ± 0.3 nM. For the same compound, the IC50 in data set [7] (setting [15]) was approximately 2.01 nM; in data set [8] (setting [16]), 1.7 ± 0.3 nM.

On to `COc1ccc2c(c1)NC(=O)CN2c1nc(Cl)nc2c1COC2` [Compound 5p, 4-(2-chloro-5,7-dihydrofuro[3,4-d]pyrimidin-4-yl)-7-methoxy-3,4-dihydroquinoxalin-2(1H)-one], for which the IC50 in [9] is 27.2 ± 3.9 nM; in data set [1] (setting [17]), 36.8 ± 4.5 nM; in [2] (setting [21]) it was 19.3 ± 3.5 nM; in data set [10] it was 22.8 ± 4.6 nM; in [12] it was 19 to 37 nM; in data set [7] (setting [19]), 31.8 ± 4.4 nM. Besides, the IC50 in [8] (setting [20]) stood at 23.3 ± 3 nM. Further, the logP in data set [11] was 1.47.

`CCNc1nc(N2CC(=O)Nc3cc(OC)ccc32)c2cccnc2n1` [Compound 5u, 4-(2-(ethylamino)pyrido[2,3-d]pyrimidin-4-yl)-7-methoxy-3,4-dihydroquinoxalin-2(1H)-one]: the IC50 in [9] was 4.8 ± 0.8 nM; in data set [1] (setting [17]), 6.7 ± 1.2 nM; in data set [2] (setting [18]), 4.5 ± 0.9 nM; in data set [10] it was 10.5 ± 1.6 nM; in data set [12], 0.4 to 26 nM; in data set [7] (setting [19]), 5.8 ± 1 nM. In addition, the IC50 in data set [8] (setting [20]) amounted to 5.4 ± 0.7 nM. For the same compound, the logP in [11] was 2.51.

As for `COc1ccc2c(c1)NC(=O)CN2c1nc(OC)nc2c1CCC2` [Compound 12b, 7-methoxy-4-(2-methoxy-6,7-dihydro-5H-cyclopenta[d]pyrimidin-4-yl)-3,4-dihydroquinoxalin-2(1H)-one], the IC50 in [1] (setting [13]) is 7.5 ± 1.5 nM; in data set [2] (setting [14]), 3.4 ± 0.8 nM; in [3], 9 ± 1.3 nM; in data set [4] it was 9.4 ± 1.5 nM; in data set [5], 7.2 ± 1.2 nM; in data set [6], 4.7 ± 0.7 nM. In addition, the IC50 in data set [7] (setting [15]) was approximately 3.2 nM; in data set [8] (setting [16]), 5.3 ± 1.1 nM.

As for `COc1ccc2c(c1)NC(=O)CN2c1nc(N2CCOCC2)nc2c1CCC2` [Compound 12e, 7-methoxy-4-(2-morpholino-6,7-dihydro-5H-cyclopenta[d]pyrimidin-4-yl)-3,4-dihydroquinoxalin-2(1H)-one], the IC50 in data set [1] (setting [13]) turned out to be 25.8 ± 4.6 nM; in data set [2] (setting [14]), 17.6 ± 4 nM; in [3], 44.4 ± 7.1 nM; in [4], 56.2 ± 9 nM; in [5] it was 23.9 ± 3.6 nM; in [6], 14.4 ± 2.2 nM. In addition, the figures for the IC50 in data set [7] (setting [15]) and in data set [8] (setting [16]) were approximately 13.6 nM and 18.3 ± 3.7 nM, respectively.

`COc1ccc2c(c1)NC(=O)CN2c1cc(C)nc2cccnc12` [Compound 5s, 7-methoxy-4-(2-methyl-1,5-naphthyridin-4-yl)-3,4-dihydroquinoxalin-2(1H)-one]: the IC50 was 14.4 ± 2.4 nM in [9]; 23.9 ± 4.1 nM in [1] (setting [17]); 12.9 ± 2.3 nM in data set [2] (setting [18]); 18.5 ± 4.1 nM in [10] (Homo sapiens, MDA-MB-468); 13 to 24 nM in [12]; 15 ± 2.1 nM in data set [7] (setting [19]). For the same compound, in data set [8] (setting [20]), the IC50 is 18.3 ± 2.9 nM. In addition, the logP in data set [11] came out at 1.96.

Regarding `COc1ccc2c(c1)NC(=O)CN2c1nc(C)nc(C)c1C` [Compound 5r, 7-methoxy-4-(2,5,6-trimethylpyrimidin-4-yl)-3,4-dihydroquinoxalin-2(1H)-one], the IC50 was 8.9 ± 1.5 nM in data set [9]; 18 ± 2.7 nM in [1] (setting [17]); 4.3 ± 0.9 nM in data set [2] (setting [21]); 5.2 ± 2.2 nM in data set [10]; 9 ± 1 nM in data set [7] (setting [19]); 9.8 ± 1.7 nM in data set [8] (setting [20]). Moreover, the logP in data set [11] is 2.97.
